This is an account of results in patent US8106055B2, “Substituted amide compounds” (Gruenenthal GmbH, priority 2007, dated 2012).

T1 sequence (P35372 whole entry): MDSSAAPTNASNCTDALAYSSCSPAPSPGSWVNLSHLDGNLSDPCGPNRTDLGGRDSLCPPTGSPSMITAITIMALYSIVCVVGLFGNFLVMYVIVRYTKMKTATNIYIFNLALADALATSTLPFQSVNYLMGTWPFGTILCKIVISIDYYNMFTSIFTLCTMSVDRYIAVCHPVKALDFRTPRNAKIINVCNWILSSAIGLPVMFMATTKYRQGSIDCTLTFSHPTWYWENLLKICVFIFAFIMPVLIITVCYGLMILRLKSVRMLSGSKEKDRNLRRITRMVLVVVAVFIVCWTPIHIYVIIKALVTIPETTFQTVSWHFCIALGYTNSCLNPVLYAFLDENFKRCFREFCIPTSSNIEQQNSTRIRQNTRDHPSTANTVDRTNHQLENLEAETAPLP

This assay has as its target T1, human μ opiate receptor (Homo sapiens, UniProt P35372).
T1 construct: purchased PerkinElmer Life Sciences, Zaventem, Belgium RB-HOM; host or cells: CHO-K1 cells (membrane preparation)
The assay is described as follows: Affinity for the human μ opiate receptor ([3H]-naloxone displacement, CHO-K1 receptor membrane preparation, SPA). The settings on record: test concentration of 1 μM; read-out: μ (binding on the μ opioid receptor, % inhibition). The format is binding. In a few lines: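 Displacement of 1 nmol/l [3H]-naloxone measured by SPA counting after 90 min at room temperature, using human μ receptor CHO-K1 membrane preparation in Tris-HCl buffer with 0.06% BSA. Test substances at 1 μmol/l give % inhibition; dilution series yield IC50, then Ki (Cheng-Prusoff); non-specific binding with 100 μmol/l naloxone.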
With `CN(C)C(c1cccc(F)c1)C1CCC(CCNC(=O)COCC2CCCCN2S(=O)(=O)c2ccc(Cl)c(Cl)c2)CC1` (centres unmarked) [Example 147, 2-((1-(3,4-dichlorophenylsulfonyl)piperidin-2-yl)methoxy)-N-(2-(4-((dimethylamino)(3-fluorophenyl)methyl)cyclohexyl)ethyl)acetamide], the inhibition at 1 µM came out at 90%.

For the compound `CN(C)C(c1cccc(F)c1)C1CCC(NC(=O)COC2CCN(S(=O)(=O)c3ccc(F)cc3)C2)CC1` (centres unmarked) [Example 172, N-(4-((dimethylamino)(3-fluorophenyl)methyl)cyclohexyl)-2-(1-(4-fluorophenylsulfonyl)pyrrolidin-3-yloxy)acetamide], the inhibition at 1 µM was determined as 78%.

With `CN(C)C(c1cccs1)C1CCC(NC(=O)COCCN(C)S(=O)(=O)c2ccc(F)cc2)CC1` (centres unmarked) [Example 10, N-(4-((dimethylamino)(thiophen-2-yl)methyl)cyclohexyl)-2-(2-(4-fluoro-N-methylphenylsulfonamido)ethoxy)acetamide], the inhibition at 1 µM was 98%.

On to `COc1ccc(S(=O)(=O)N(C)CCOCC(=O)NCC2CCC(C(c3cccs3)N(C)C)CC2)cc1` (centres unmarked) [Example 142, N-((4-((dimethylamino)(thiophen-2-yl)methyl)cyclohexyl)methyl)-2-(2-(4-methoxy-N-methylphenylsulfonamido)ethoxy)acetamide], for which the inhibition at 1 µM is 89%.

Regarding `CN(C)C(c1cccc(F)c1)C1CCC(NC(=O)COCCN(Cc2ccccc2)S(=O)(=O)c2ccccc2)CC1` (centres unmarked) [Example 175, 2-(2-(N-benzylphenylsulfonamido)ethoxy)-N-(4-((dimethylamino)(3-fluorophenyl)methyl)cyclohexyl)acetamide], the inhibition at 1 µM came to 85%.

With `CN(C)C(c1cccc(F)c1)C1CCC(CCNC(=O)COCCN(C)S(=O)(=O)c2ccc(Cl)cc2)CC1` (centres unmarked) [Example 186, 2-(2-(4-chloro-N-methylphenylsulfonamido)ethoxy)-N-(2-(4-((dimethylamino)(3-fluorophenyl)methyl)cyclohexyl)ethyl)acetamide], the inhibition at 1 µM turned out to be 87%.

Consider `COc1cc(C)c(S(=O)(=O)N(C)CCOCC(=O)NCCC2CCC(C(c3cccc(F)c3)N(C)C)CC2)c(C)c1C` (centres unmarked) [Example 183, N-(2-(4-((dimethylamino)(3-fluorophenyl)methyl)cyclohexyl)ethyl)-2-(2-(4-methoxy-N,2,3,6-tetramethylphenylsulfonamido)ethoxy)acetamide], for which the inhibition at 1 µM amounted to 83%.

`COc1ccc(S(=O)(=O)N2CCCCC2COCC(=O)NCC2CCC(C(c3ccccc3)N(C)C)CC2)cc1OC` (centres unmarked) [Example 150, 2-((1-(3,4-Dimethoxyphenylsulfonyl)piperidin-2-yl)methoxy)-N-((4-((dimethylamino)(phenyl)methyl)cyclohexyl)methyl)acetamide]: the inhibition at 1 µM is 86%.

On to `COc1cc(C)c(S(=O)(=O)N2CCC(OCC(=O)NCC3CCC(C(c4ccccc4)N(C)C)CC3)C2)c(C)c1` (centres unmarked) [Example 173, N-((4-((dimethylamino)(phenyl)methyl)cyclohexyl)methyl)-2-(1-(4-methoxy-2,6-dimethylphenylsulfonyl)pyrrolidin-3-yloxy)acetamide], for which the inhibition at 1 µM stood at 87%.

For `CN(C)C(c1cccs1)C1CCC(CCNC(=O)COCCN(C)S(=O)(=O)c2ccc(Cl)cc2Cl)CC1` (centres unmarked) [Example 9, 2-(2-(2,4-dichloro-N-methylphenylsulfonamido)ethoxy)-N-(2-(4-((dimethylamino) (thiophen-2-yl)methyl)cyclohexyl)ethyl)acetamide], the inhibition at 1 µM was found to be 98%.

Take `COc1cc(C)c(S(=O)(=O)N2CCC(OCC(=O)NCCC3CCC(C(c4cccs4)N(C)C)CC3)C2)c(C)c1` (centres unmarked) [Example 199, N-(2-(4-((dimethylamino)(thiophen-2-yl)methyl)cyclohexyl)ethyl)-2-(1-(4-methoxy-2,6-dimethylphenylsulfonyl)pyrrolidin-3-yloxy)acetamide]: the inhibition at 1 µM came out at 87%.

`CN(C)C(c1cccs1)C1CCC(CCNC(=O)COC2CCN(S(=O)(=O)c3ccc(Cl)cc3Cl)C2)CC1` (centres unmarked) [Example 21, 2-(1-(2,4-dichlorophenylsulfonyl)pyrrolidin-3-yloxy)-N-(2-(4-((dimethylamino)(thiophen-2-yl)methyl)cyclohexyl)ethyl)acetamide]: the inhibition at 1 µM is 97%.

Take `CN(C)C(c1cccs1)C1CCC(NC(=O)COC2CCN(S(=O)(=O)c3cccc(C(F)(F)F)c3)C2)CC1` (centres unmarked) [Example 11, N-(4-((dimethylamino)(thiophen-2-yl)methyl)cyclohexyl)-2-(1-(3-(trifluoromethyl)phenylsulfonyl)pyrrolidin-3-yloxy)acetamide]: the inhibition at 1 µM stood at 98%.

With `CN(C)C(c1ccccc1)C1CCC(CNC(=O)COC2CCN(S(=O)(=O)c3ccccc3)C2)CC1` (centres unmarked) [Example 195, N-((4-((dimethylamino)(phenyl)methyl)cyclohexyl)methyl)-2-(1-(phenylsulfonyl)pyrrolidin-3-yloxy)acetamide], the inhibition at 1 µM was 83%.
